Molecular target: tyrosinase
Assay: enzyme assay with L-tyrosine substrate, […] nm
Type: biochemical

Tyrosinase Inhibition IC50: 179.5 µg/mL
SMILES: COc1ccc2c(c1)[nH]c1cc(OC)c(C(=O)O)cc12 [L3, Clausine K]
